# Assay results as given in US11260034B2, “Method of using niclosamide derivatives” (CHANG GUNG UNIVERSITY, priority 2016, dated 2022).
# Tests used:
# [1] = test system: washed platelet samples, platelet aggregation induced by collagen; experiment: platelet aggregation test, washed platelets stimulated with collagen (light transmission); format: cell-based; details: for collagen-induced platelet aggregation: FIG. 8; for aggregation percentage: FIG. 9
# Method: FIG. 1 is a diagram illustrating a platelet aggregation test, in accordance with at least one embodiment of the present invention. In FIG. 1, N and C represent the administrations of niclosamide in 0.25% dimethyl sulfoxide (DMSO) or collagen respectively. The platelet aggregation test was performed in accordance with the standard procedure. Four washed platelet samples from the same source were treated with the same volume of niclosamide (0.5 μM, 1 μM, and 2 μM) or a solvent control respectively. Five minutes later, each washed platelet sample was treated with collagen (2 μM) to induce platelet aggregation. FIG. 1 illustrates the light transmission rates of each result. In FIG. 1, the X-axis represents time and the Y-axis represents the transmittance. Note that in FIG. 1, the four platelet aggregation tests performed simultaneously are presented sequentially on the X-axis to render the data readable for one skilled in the art. […] The platelet aggregation test was performed in accordance with the standard procedure. Four washed platelet samples from the same source were treated with the same volume of niclosamide (0.5 μM, 1 μM, and 2 μM) or a solvent control respectively. Five minutes, each washed platelet sample was treated with 2 μM collagen to induce platelet aggregation. The results were detected twenty minutes after the administration of collagen. In FIG. 2, the Y-axis represents the percentage of platelet aggregation, in which the transmittance of platelet-poor plasma is set as 100%. FIG. 8 is a diagram illustrating a platelet aggregation test, in accordance with at least one embodiment of the present invention. Four washed platelet samples from the same source were treated with different treatments at the same time. In FIG. 8, “D” represents the administration of 0.25% DMSO; “C” represents the administration of collagen; “N” represents the administration of niclosamide in 0.25% DMSO; and “S” represents the administration of a STAT-3 inhibitor, STA-21. […] Four washed platelet samples from the same source were treated with different treatments at the same time. In FIG. 9, “D” represents 0.25% DMSO; “STA-21” represents the STAT-3 inhibitor, STA-21; “Niclosamide” represents the niclosamide in 0.25% DMSO; and “Collagen” represents the stimulant, collagen.
# pSYK and PLCγ2 = experiment: western blot of proteins in the signal transduction pathway of platelet aggregation; format: cell-based; details: FIG. 3; 2 μM niclosamide pretreatment, 2.5 μM collagen
# Method: FIG. 3 is a western blot image showing proteins in the signal transduction pathway of platelet aggregation, in accordance with at least one embodiment of the present invention. In FIG. 3, pSYK and PLCγ2 in the signal transduction pathway are suppressed in the washed platelet sample received 2 μM niclosamide, even that is treated with 2.5 μM collagen to induce platelet aggregation. In contrast, the pSYK and PLCγ2 in the washed platelet sample received a solvent control (0.25% DMSO) pretreatment are successfully activated after the 2.5 μM collagen treatment.
# [2] = test system: washed platelet sample, clot formation induced by collagen; experiment: optical microscope images of platelet aggregation test; format: cell-based; details: FIG. 4C; 2 μM niclosamide and 2.5 μM collagen
# Method: FIGS. 4A-4C are optical microscope images of a platelet aggregation test, in accordance with at least one embodiment of the present invention. The platelet aggregation test was performed in accordance with the standard procedure on three washed platelet samples from the same source at the same time. […] In FIG. 4C, the washed platelet sample 10 received 2 μM niclosamide and 2.5 μM collagen; In FIG. 4B, the washed platelet sample 10 received 2.5 μM collagen and 0.25% DMSO with the same volume of the niclosamide in FIG. 4C. Note that 0.25% DMSO is the solvent of the niclosamide in FIG. 4C. […] In FIG. 4B, clots 20 formed as a result of the treatment of collagen and DMSO.
# [3] = test system: washed platelet samples, platelet aggregation induced by podoplanin; experiment: platelet aggregation test, washed platelets stimulated with podoplanin; format: cell-based; details: FIG. 6; niclosamide 0.5 μM, 1 μM or 2 μM vs solvent control; 0.4 μM podoplanin; read 20 min after podoplanin
# Method: FIG. 6 is a bar chart representing the quantitative results of a platelet aggregation test, in accordance with at least one embodiment of the present invention. All procedures in FIG. 6 are the same as the procedures in FIG. 2, except that the collagen used to stimulate platelet aggregation in FIG. 2 is substituted by podoplanin in FIG. 6. In this embodiment, four washed platelet samples from the same source were treated with the same volume of niclosamide (0.5 μM, 1 μM, and 2 μM) or a solvent control respectively. Five minutes, each washed platelet sample was treated with 0.4 μM podoplanin to induce platelet aggregation. The results were detected twenty minutes after the administration of podoplanin. In FIG. 6, the Y-axis represents the percentage of platelet aggregation, in which the transmittance of platelet-poor plasma is used as 100%.
# mice [4] = experiment: tail bleeding assay; format: in vivo; details: FIG. 10; mice 8-10 weeks; 20 mg/kg injected into the abdomen, 1 h before; distal 3-mm tail segment amputated; DMSO control 5 minutes
# Method: FIG. 10 is diagram illustrating the bleeding time results, in accordance with at least one embodiment of the present invention. Mice at 8-10 weeks of age were used in FIG. 10. Isoflurane was provided based on the body weight to anesthetize the mice one hour after the 20 mg/kg niclosamide or 5% DMSO was injected into the abdomen. Followed the standard procedure of tail bleeding assay, the distal 3-mm segment of the tail was amputated with scalpel after the anesthetization. The tails were than immersed in isotonic saline at 37° C. to observe the bleeding time. […] However, the bleeding time for mice treated with niclosamide was extended to around 15 minutes.
# mice [5] = experiment: ferric chloride occlusive thrombosis of mesenteric arteries; format: in vivo; details: FIG. 11; mice 8-10 weeks; 20 mg/kg injected into the abdomen; 7.5% FeCl3 on mesenteric arteries for 2 min; DMSO control 5 minutes
# Method: FIG. 11 is diagram illustrating the occlusion time, in accordance with at least one embodiment of the present invention. Mice at 8-10 weeks of age were used in FIG. 11. About 20 nM 3,3′-Dihexyloxacarbocyanine iodide (DioC6), a fluorescent dye used for the staining of platelets, was injected into the orbital vein after 20 mg/kg niclosamide or 5% DMSO was injected into the abdomen. An hour later, isoflurane was provided based on the body weight to anesthetize the mice. Followed the standard procedure for studying occlusive thrombosis, Whatman #1 filter papers soaked with 7.5% ferric chloride (FeCl3) were attached to the mesenteric arteries for two minutes. The mesenteric arteries were then immersed in isotonic saline and placed under a fluorescence microscope (Macrofluo, objective 5.0/0.5 NA, Leica Micro-systems) to record the occlusion time and cessation of blood flow.
# [6] = Int J Risk Saf Med 20 (2008) 113-122; cited from earlier work
SMILES,"collagen-induced platelet aggregation ([1]; pretreated with 1.25 μM STA-21, 2 μM collagen)",aggregation percentage ([1]; 1.25 μM STA-21 and 2 μM collagen (DMSO control exceeds 60%)),"platelet aggregation induced by collagen (transmittance over time) ([1]; FIG. 1, niclosamide 0.5 μM, 1 μM, 2 μM given 5 min before collagen 2 μM)","percentage of platelet aggregation ([1]; FIG. 2, niclosamide 0.5 μM, 1 μM or 2 μM vs solvent control, 2 μM collagen, read 20 min after collagen, p<0.01)","collagen-induced platelet aggregation ([1]; pretreated with 0.25 μM niclosamide, 2 μM collagen)",aggregation percentage ([1]; 0.25 μM niclosamide and 2 μM collagen (DMSO control exceeds 60%)),"IC50 relative to STA-21 ([1]; FIGS. 8 and 9, collagen-induced platelet aggregation)",pSYK and PLCγ2 in the signal transduction pathway (pSYK and PLCγ2),platelet aggregation / clots under 20× optical microscope [2],percentage of platelet aggregation [3],bleeding time (mice [4]),occlusion time (mice [5]),safety profile under current conditions of use [6]
"C[C@@H]1CC(=O)c2c(ccc3c2C(=O)c2cccc(O)c2C3=O)C1 [STA-21, ochromycinone]",suppressed,less than 40%,–,–,–,–,–,–,–,–,–,–,–
"O=C(Nc1ccc([N+](=O)[O-])cc1Cl)c1cc(Cl)ccc1O [niclosamide, 5-chloro-N-(2-chloro-4-nitrophenyl)-2-hydroxybenzamide]",–,–,suppresses the platelet aggregation induced by collagen in a dose-dependent manner,significantly reduced,suppressed,less than 30%,lower IC50 compared to STA-21,suppressed,No platelet aggregation is observed,significantly reduced,around 15 minutes,around 25 minutes,there is no information to suggest an unfavorable safety profile of the drug under current conditions of use
